Test results as given in the METLIN SMRT retention time set (Domingo-Almenara et al. 2019).

Assay: gradient 5% acetonitrile 3 min, to 50% in 2 min, to 85% in 15 min, held 3 min, 100 µL/min
Conditions: column: Zorbax Extend-C18 2.1 x 50 mm; eluents: water / acetonitrile, 0.1% formic acid
Outline: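 The mobile phases were water and acetonitrile, each with 0.1% formic acid, pumped at 100 μL/min through a Zorbax Extend-C18 column (2.1 × 50 mm, 1.8 μm). Pure standards were injected as mixtures of ~100 molecules and detected by a quadrupole time-of-flight mass spectrometer in positive and negative ionization mode. Retention time came from computationally picked adduct peaks, each inspected by hand.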

Going from COc1ccc(NC(=O)N2CCCC2c2nc(-c3cccc(OC)c3)no2)cc1 (centres undefined) to COc1ccc(-c2nnc(COc3ccc(NC(=O)c4ccoc4)cc3)o2)cc1, the RP-LC retention time falls from 875 s to 738 s.

First: N#Cc1ccc(C(=O)N2CCN(c3cc(-c4cccs4)[nH]n3)CC2)cc1
Second: Cc1ccc(-n2nc(N3CCN(C(=O)c4ccc(Br)o4)CC3)ccc2=O)cc1
The RP-LC retention time of the first is lower: 749 s for the first, 817 s for the second.

Compared with CC(C)Cn1cc(S(=O)(=O)Nc2ccc(F)c(F)c2)c2cccnc21, Cn1c(C2CCN(S(=O)(=O)c3ccc(Cl)cc3)C2)nc2cccnc21 (centres undefined) is lower in RP-LC retention time: 994 s for the first, 760 s for the second.

Going from Cc1ccc(Cl)cc1N1CCN(C(=O)c2[nH]c(C)c(S(=O)(=O)N3CCOCC3)c2C)CC1 to CC(=O)Nc1ccc(-n2cnc(C(=O)N3CCN(c4cc(C)ccc4C)CC3)c2)nc1, the RP-LC retention time falls from 984 s to 790 s.

First: CCn1c(C)c(C(=O)CN(CC2CCCO2)C(=O)c2cccc(F)c2)c(C)c1C(=O)OC (centres undefined)
Second: Cc1ccc(CNC(=O)C2CCCN(S(=O)(=O)c3cc(-c4noc(C)n4)cs3)C2)o1 (centres undefined)
The RP-LC retention time of the first is higher: 896 s for the first, 864 s for the second.

Going from Cc1nn(C)c2c(=O)n(CC(=O)N3CCN(c4ccccn4)CC3)ccc12 to O=C(Cc1nnc(-c2ccc3ncccc3c2)o1)N1CCN(c2ccccc2F)CC1, the RP-LC retention time rises from 558 s to 753 s.

Compared with Cc1ccc(CNc2nnc(N3CCOCC3)c3ccccc23)cc1, COc1ccc(CNC(=O)c2nnc(-c3ccc(S(=O)(=O)N4CCOCC4)cc3)o2)cc1 is higher in RP-LC retention time: 678 s for the first, 829 s for the second.

Compared with CCCNC(=O)N1CC(c2nc(-c3ccccc3)no2)C2(CCOCC2)C1 (centres undefined), CCN1C(=O)c2ccccc2Sc2cc(-c3noc(CNC(=O)c4ccco4)n3)ccc21 is higher in RP-LC retention time: 770 s for the first, 865 s for the second.

Going from COc1ccc(S(=O)Cc2ccc(C(=O)NCCCN3CCCCC3)o2)cc1 (centres undefined) to CC1CCCCN1CCNC(=O)c1ccc2ccnc(N3CCN(c4ccc(Cl)cc4)CC3)c2c1 (centres undefined), the RP-LC retention time rises from 587 s to 664 s.

First: FC(F)(F)c1nc(N2CCN(Cc3ccccc3)CC2)nc2c1CCCCC2
Second: CCOC(=O)N1CCN(C(=O)C2CCN(c3ncnc4c3oc3ccccc34)CC2)CC1
The RP-LC retention time of the first is higher: 885 s for the first, 673 s for the second.

Compared with Cc1nc(C2CCOCC2)n(C2CCN(S(=O)(=O)c3cccnc3)C2)n1 (centres undefined), O=C(CN1CCCc2nc(C3CC3)ncc2C1=O)NCCCN1CCOCC1 is lower in RP-LC retention time: 622 s for the first, 563 s for the second.

Going from Cc1nnc(SCC(=O)NCCc2ccccc2)s1 to CCOc1ccc(CCNC(=O)c2snc(C(=O)NCc3ccccc3)c2N)cc1OCC, the RP-LC retention time rises from 650 s to 1090 s.

Going from Cc1nnc(-c2cc(C)n(CC(=O)Nc3ccc(C)c(C)c3)c2C)o1 to Cc1ccc2c(=O)c3c([nH]c2c1C)CCN(CC(=O)Nc1ccc(F)cc1F)C3, the RP-LC retention time falls from 809 s to 615 s.

Compared with Cc1ccc(NC(=O)NCCn2c(-c3ccncc3)nc3cccnc32)cc1Cl, COc1cccc(CNC(=O)Nc2c(-c3ccccc3)nc3ccccn23)c1 is lower in RP-LC retention time: 666 s for the first, 653 s for the second.

Going from Cc1noc(C)c1COc1ccccc1CN1CCC2(CCC2O)CC1 (centres undefined) to O=C(NCc1ccccc1F)C1CCCN(c2cnc3nccnc3c2)C1 (centres undefined), the RP-LC retention time rises from 621 s to 680 s.

Compared with CCOc1ccc2nc(C(=O)NCc3ccc(C(F)(F)F)cc3)cn2n1, CCCCNC(=O)Cn1nc2c3cc(-c4ccc(F)cc4)nn3ccn2c1=O is lower in RP-LC retention time: 947 s for the first, 812 s for the second.

First: CN(C)c1nc2ncn3c(=O)n(CC(=O)Nc4ccc(Cl)cc4F)nc3c2s1
Second: O=C1COc2ccc(-c3csc(NC(=O)c4ccc(Br)cc4)n3)cc2N1
The RP-LC retention time of the first is lower: 748 s for the first, 946 s for the second.

Going from CCOC(=O)c1[nH]c(C)c(CCC(=O)NC(C)C(=O)N2CCCCC2)c1C (centres undefined) to Cc1ccc(NC(=O)N2C[C@@H](F)C[C@H]2C(=O)N2CCCCC2)c(C)c1, the RP-LC retention time rises from 570 s to 732 s.

First: Cc1cc(C)c(CNS(=O)(=O)c2cc(-c3nc(C)c(C)s3)cs2)c(C)c1
Second: Cn1c(=O)oc2cc(-c3noc(-c4cc(F)ccc4F)n3)ccc21
The RP-LC retention time of the first is higher: 1310 s for the first, 1010 s for the second.

First: Cc1cccc(OCC(=O)N2CCc3cc(-c4ccno4)ccc32)c1
Second: CCCC(=O)N1CCc2cn(C)c3cccc(c23)C1
The RP-LC retention time of the first is higher: 974 s for the first, 832 s for the second.

Going from Cn1c(=O)n(C2CCN(C(=O)Cc3ccsc3)CC2)c2ncncc21 to c1cnn(-c2cc(N3CCCC3)ncn2)c1, the RP-LC retention time rises from 630 s to 678 s.

Compared with COc1ccc(-n2ccn3cc(-c4ccc(F)cc4F)nc3c2=O)cc1Cl, Cc1ccc(N2CCC(NC(=O)c3cccc(C#N)c3)C2=O)cc1C (centres undefined) is lower in RP-LC retention time: 929 s for the first, 847 s for the second.
